The values that follow come from ChEMBL document CHEMBL3593198 (Bioorg Med Chem, 2015).

Active and inactive are the calls of the source. The rule behind the calls is not given here.

The target in assay [1] is T1, Sodium/potassium-transporting ATPase subunit alpha-1 (Homo sapiens, UniProt P05023). Nature of the assay: Inhibition of human kidney Na(+)/K(+) ATPase alpha-1 assessed as amount of Pi release after 1 hr by colorimetric method.
The nature of assay [2]: Selectivity index, ratio of IC50 for human WI-26 VA4 cells to IC50 for human RKO-AS45-1 cells. The class given is functional.
Assay [3] is described as follows: Cytotoxicity against human RKO-AS45-1 cells after 48 hrs by MTT assay. It is filed as functional, cell-based. The conditions noted are these: RKOAS451, 48 h. In general terms: Tetrazolium dyes change colour on reduction, which living cells bring about.
Assay [4] has as its system HeLa. In words: Cytotoxicity against human HeLa cells after 48 hrs by MTT assay. The class given is functional, cell-based.
Assay [5] in a line: Cytotoxicity against human WI-26 VA4 cells after 48 hrs by MTT assay. The conditions noted are these: WI26VA4, 48 h. It is filed as cell-based.
For assay [6], the system named is HeLa. Nature of the assay: Selectivity index, ratio of IC50 for human WI-26 VA4 cells to IC50 for human HeLa cells. It is filed as functional.
In assay [7] the target is Sodium/potassium-transporting ATPase subunit alpha-2/alpha-3 (Rattus norvegicus, UniProt P06686+P06687). In words: Inhibition of Wistar rat brain Na(+)/K(+) ATPase alpha-2/3 assessed as amount of Pi release after 1 hr by colorimetric method.
Assay [8] addresses T2, Sodium/potassium-transporting ATPase (Homo sapiens) (UniProt P05023+P14415+P05026+P50993+P54709+P13637+Q13733+P54710). In words: Inhibition of Na(+)/K(+) ATPase in human HeLa cells at 10 uM after 24 hrs by immunoblotting. It is filed as cell-based.
Assay [9] relates to HeLa. Nature of the assay: Inhibition of Na(+)/K(+) ATPase alpha-1 expression in human HeLa cells at 10 uM after 24 hrs by immunoblotting. It is filed as functional, cell-based. A general note: In western blotting, separated proteins are transferred to a membrane and probed.
The target in assay [10] is T2, Sodium/potassium-transporting ATPase (Homo sapiens). The conditions noted are these: HeLa, 150 nM.
Description: Inhibition of Na(+)/K(+) ATPase in human HeLa cells at 150 nM after 24 hrs by immunoblotting
The test system of assay [11] is HeLa. Nature of the assay: Inhibition of Na(+)/K(+) ATPase alpha-1 expression in human HeLa cells at 150 nM after 24 hrs by immunoblotting. The class given is functional, cell-based.
Assay [12] addresses T1, Sodium/potassium-transporting ATPase subunit alpha-1. Nature of the assay: Inhibition of human kidney Na(+)/K(+) ATPase alpha-1 assessed as amount of Pi release at 10 uM after 1 hr by colorimetric method.
The target of assay [13] is Sodium/potassium-transporting ATPase subunit alpha-2/alpha-3 (Rattus norvegicus) (UniProt P06686+P06687). Nature of the assay: Inhibition of Wistar rat brain Na(+)/K(+) ATPase alpha-2/3 assessed as amount of Pi release at 10 uM after 1 hr by colorimetric method.

One may read the IC50 as the concentration that inhibits the measured activity by half. On to `C[C@H]1O[C@@H](O[C@H]2[C@@H](O)C[C@H](O[C@H]3[C@@H](O)C[C@H](O[C@H]4CC[C@@]5(C)[C@H](CC[C@@H]6[C@@H]5C[C@@H](O)[C@]5(C)[C@@H](C7=CC(=O)O/C7=C\c7ccc(N(C)C)cc7)CC[C@]65O)C4)O[C@@H]3C)O[C@@H]2C)C[C@H](O)[C@@H]1O`, for which the IC50 in [1] worked out at 9.8 µM; in assay [3], 0.48 µM; in [4], 0.26 µM; in assay [5], 0.65 µM; in assay [7], 20 µM. Also, the “Ratio IC50” value was determined as 1.35 in assay [2] and 2.5 in assay [6]. Also, the inhibition entry in assay [8] and in [10] was “Active” in each case. The inhibition result in assay [9] and in assay [11] was “inactive” in each case.

As to `COc1ccc(/C=C2\OC(=O)C=C2[C@H]2CC[C@]3(O)[C@@H]4CC[C@@H]5C[C@@H](O[C@H]6C[C@H](O)[C@H](O[C@H]7C[C@H](O)[C@H](O[C@H]8C[C@H](O)[C@H](O)[C@@H](C)O8)[C@@H](C)O7)[C@@H](C)O6)CC[C@]5(C)[C@H]4C[C@@H](O)[C@]23C)cc1`, the half-inhibitory concentration (IC50) in assay [1] is 0.57 µM; in assay [3] it was 79 µM; in assay [4], 61.4 µM; in assay [5] it was 78.3 µM; in assay [7], 0.46 µM. For the same compound, the “Ratio IC50” value in assay [2] came to 0.99; in assay [6] it was 1.27. Besides, the inhibition entry in [8] was “inactive”.

With `C[C@H]1O[C@@H](O[C@H]2[C@@H](O)C[C@H](O[C@H]3[C@@H](O)C[C@H](O[C@H]4CC[C@@]5(C)[C@H](CC[C@@H]6[C@@H]5C[C@@H](O)[C@]5(C)[C@@H](C7=CC(=O)O/C7=C\c7ccc(Cl)cc7)CC[C@]65O)C4)O[C@@H]3C)O[C@@H]2C)C[C@H](O)[C@@H]1O`, the “Ratio IC50” value is given as 1.21 in assay [2] and 0.72 in assay [6]. In addition, the IC50 amounted to 23.8 µM in [3], 40.1 µM in [4] and 28.7 µM in assay [5]. Moreover, the inhibition entry in assay [12], in [13] and in assay [8] was “inactive” each time.

With `C[C@H]1O[C@@H](O[C@H]2[C@@H](O)C[C@H](O[C@H]3[C@@H](O)C[C@H](O[C@H]4CC[C@@]5(C)[C@H](CC[C@@H]6[C@@H]5C[C@@H](O)[C@]5(C)[C@@H](C7=CC(=O)O/C7=C\c7ccc(F)cc7)CC[C@]65O)C4)O[C@@H]3C)O[C@@H]2C)C[C@H](O)[C@@H]1O`, the half-inhibitory concentration (IC50) in assay [1] is 0.34 µM; in assay [3], 41.4 µM; in assay [4] it was 60.9 µM; in [5], 54.1 µM; in [7] it was 0.66 µM. In addition, the “Ratio IC50” value in [2] worked out at 1.31; in [6], 0.89. The inhibition entry in assay [8] was “inactive”.

`C[C@H]1O[C@@H](O[C@H]2[C@@H](O)C[C@H](O[C@H]3[C@@H](O)C[C@H](O[C@H]4CC[C@@]5(C)[C@H](CC[C@@H]6[C@@H]5C[C@@H](O)[C@]5(C)[C@@H](C7=CC(=O)O/C7=C\c7cccc([N+](=O)[O-])c7)CC[C@]65O)C4)O[C@@H]3C)O[C@@H]2C)C[C@H](O)[C@@H]1O`: the IC50 in [1] was determined as 11 µM; in assay [3], 41.3 µM; in assay [4], 65.2 µM; in assay [5] it was 44.1 µM; in [7], 4 µM. For the same compound, the “Ratio IC50” value is listed as 1.07 in assay [2] and 0.68 in assay [6]. Besides, the inhibition result in assay [8] was “inactive”.

Consider `C[C@H]1O[C@@H](O[C@H]2[C@@H](O)C[C@H](O[C@H]3[C@@H](O)C[C@H](O[C@H]4CC[C@@]5(C)[C@H](CC[C@@H]6[C@@H]5C[C@@H](O)[C@]5(C)[C@@H](C7=CC(=O)O/C7=C\c7cccc(Cl)c7Cl)CC[C@]65O)C4)O[C@@H]3C)O[C@@H]2C)C[C@H](O)[C@@H]1O`, for which the “Ratio IC50” value was 0.81 in assay [2] and 0.36 in [6]. Besides, the concentration for half-maximal inhibition (IC50) is 19 µM in assay [3], 42.5 µM in assay [4], 15.5 µM in assay [5] and 18 µM in assay [7]. Also, in assay [8], the inhibition result is “inactive”.

Consider `C[C@H]1O[C@@H](O[C@H]2[C@@H](O)C[C@H](O[C@H]3[C@@H](O)C[C@H](O[C@H]4CC[C@@]5(C)[C@H](CC[C@@H]6[C@@H]5C[C@@H](O)[C@]5(C)[C@@H](C7=CC(=O)OC7)CC[C@]65O)C4)O[C@@H]3C)O[C@@H]2C)C[C@H](O)[C@@H]1O` [DIGOXIN], for which the midpoint of inhibition in [3], the IC50, lay at 0.42 µM. The inhibition entry in assay [10] was “Active”. Besides, in assay [11], the inhibition result is “inactive”.
